Results on six compounds are retold here after US6316409A, “Modified ligands of calcium-dependent binding proteins” (Medical Research Council, priority 1996, dated 2001).

Molecules are shown by their SMILES. Peptide text beside a SMILES is read from it.

Experiment [1] has as its target T1, bovine brain calmodulin (Bos taurus, UniProt P62157).
T1 construct: Complexes between calmodulin from bovine brain (1 μM, Sigma); purchased Sigma; host or cells: bovine brain (tissue-derived)
The experiment is described as follows: BIAcore surface plasmon resonance, kon and koff of calmodulin binding to biotinylated peptides. The conditions noted are these: for koff / kon: BIAcore; for koff: read-out: koff (s^-1)^B; for kon: read-out: kon (s^-1 M^-1)^B. The text has this: (§1) For a kinetic and thermodynamic characterisation of the binding of the peptides of the present invention to bovine brain calmodulin, we have measured the kinetic isomerisation, association, and dissociation constants from which dissociation constants can be derived.
koff =k-1·k-2 /(k+2 +k-2)
Real-time interaction analysis by surface plasmon resonance on a BIAcore instrument (Jonsson et al., 1991) was used to determine kon and koff constants. Biotinylated peptides 1-17 were bound to commercially available streptavidin-coated microsensor chips (Pharmacia Biosensor), in order to achieve a surface capacity of 100-200 surface plasmon resonance units of calmodulin bound. Different concentrations of calmodulin (5, 10, 20, 50 and 100 nM in the order of FIG. 2) were injected and allowed to associate with the peptides. Regeneration of the surface was achieved by injection of 5 μl TBS+[…] which dissociates the calmodulin-peptide complex.

Experiment [2] deals with T2, calmodulin (Bos taurus, UniProt P62157). Kind of experiment: koff by competition experiments, native PAGE of fluorescein-labelled peptide/calmodulin complexes. The format is binding, bovine. Also on record: Complexes between calmodulin from bovine brain (1 μM, Sigma); purchased Sigma; host or cells: bovine brain (tissue-derived). The conditions noted are these: competition with 30-fold excess unlabelled peptide, room temperature, gel buffer; read-out: koff (s^-1)^C. As to the method: Complexes between calmodulin from bovine brain (1 μM, Sigma) and fluorescein-labelled sMLCK-derived peptides (as described in Table 1 (SEQ ID NOS:2-18)) were prepared in gel buffer (25% gel mix [4 g sucrose+1 mg bromophenol blue in water to give a 10 ml solution]+75% TBSC [50 mM TRIS pH 7.4, […]+50 μM CaCl2)] and run on a 15% native PAGE gel (5 ml 30% acrylamide-bisacrylamide solution+4.5 ml water+0.5 ml 3M Tris, pH 8.8, +1 μl 1M CaCl2 polymerised with 30 μl 25% ammonium persulphate and 9 μl TEMED) using 14.4 g/l glycine+3 g/l Tris-base+0.1 mM CaCl2 as running buffer. Peptides were labelled either with iodoacetamido fluorescein (Molecular Probes) or with iodoacetamido-LC-biotin (Pierce) essentially as previously described by Neri et al., (1995). In these conditions, the fluorescence of the positively-charged labelled peptides can be detected only if they form a stable complex with calmodulin.
(§2) In order to obtain an independent experimental confirmation if the BIAcore results, koff constants for peptides 1-17 towards calmodulin were determined by competition experiments. 30 nM fluorescein-labelled peptide/calmodulin complexes in gel buffer were competed at room temperature for different times with 30-fold excess of unlabelled peptide. The resulting mixtures were run on native PAGE gels and imaged by LUANA as described above. The bands in the image obtained were integrated using the LUANA software (Neri et al., 1996) and the corresponding intersities plotted versus time and fitted with a single exponential, from which koff constants were derived. In order to normalise band intensities against pipetting errors, the samples contained 6 nM free fluorescein which ran with the front. The fluorescein bands were integrated and used to normalise the calmodulin/fluorescent peptide complex band intensity. The results of competitions for peptides 1, 2, 3, 6, 9, and 14 are shown in this FIG. 3. Incubation time in minutes is indicated under the lanes.
The volumes of the bands were plotted versus competition time and fitted to a single exponential, from which koff values were derived.
The fastest competitions (peptides 1-4, 9 and 13, SEQ ID NOS:2-5,10, and 14) were over by the time the calmodulin/fluorescent peptide complex entered the gel (approximately 5-10 minutes from pipetting a molar excess of unlabelled peptide; FIG. 3), from which a condition on the off-rate constant koff >1×10^-3 s^-1 was derived. Even for these fast off-rates, complexes can be detected by native polyacrylamide gel electrophoresis because of the well known gel "cage effect" (Fried and Crothers, 1981; Garner and Revzin, 1981).

In experiment [3] the target is T1, bovine brain calmodulin. The experiment is described as follows: stopped-flow measurement of kisom of calmodulin-binding peptides. The note with it: changes in tryptophan fluorescence.
Excerpt: It has been shown by Torok and Trentham (1994) that smooth muscle MLCK-derived peptides bind to calmodulin with a biphasic kinetic according to the scheme: [drawing 1]
in which P is the peptide, C is calmodulin, P-C is the first complex formed on association of P and C, which then undergoes a conformational isomerisation to P-C*.
as §1
kisom constants have been measured by stopped-flow, detecting changes in tryptophan fluorescence for all the peptides except 3 (SEQ ID NO:4), in which the tryptophan is replaced by alanine.

For experiment [4], the target named is T2, calmodulin. The experiment is described as follows: kinetic analysis of N9 replacement peptides and multiple mutant by the methods of Examples 3 and 4. It is filed as binding. As for the experimental part: Real-time interaction analysis by surface plasmon resonance on a BIAcore instrument (Jonsson et al., 1991) was used to determine kon and koff constants. […] Different concentrations of calmodulin (5, 10, 20, 50 and 100 nM in the order of FIG. 2) were injected and allowed to associate with the peptides. Regeneration of the surface was achieved by injection of 5 μl TBS+[…] which dissociates the calmodulin-peptide complex.
as §2, with “30” for “In order to obtain an independent experimental confirmation if the BIAcore results, koff constants for peptides 1-17 towards calmodulin were determined by competition experiments. 30”, “The results of competitions for peptides 1, 2, 3, 6, 9, and 14 are shown in this FIG. 3.” left out
Hydrophobic donor residues (valine, phenylalanine and leucine) were chosen because it was hypothesized that these residues would contribute to the stability of the hydrophobic environment in the calmodulin core.

In general, koff refers to a measure of how fast the partners let go of each other. A word on the kon: it is the second-order rate constant of association. In the case of `CC[C@H](C)[C@H](NC(=O)[C@H](C)NC(=O)[C@H](CCCCN)NC(=O)[C@H](Cc1ccccc1)NC(=O)[C@H](CCCNC(=N)N)NC(=O)[C@H](CC(N)=O)NC(=O)[C@H](C)NC(=O)[C@H](C)NC(=O)[C@H](CO)NC(=O)[C@@H](NC(=O)[C@H](C)NC(=O)[C@@H](NC(=O)[C@H](Cc1ccccc1)NC(=O)[C@H](CC(N)=O)NC(=O)[C@H](CCCCN)NC(=O)[C@H](CCCCN)NC(=O)[C@H](Cc1c[nH]c2ccccc12)NC(=O)[C@H](CCCNC(=N)N)NC(=O)[C@H](C)NC(=O)[C@H](C)NC(=O)[C@H](C)NC(=O)[C@@H](N)CS)[C@@H](C)CC)C(C)C)C(=O)N[C@@H](CO)C(N)=O` [Peptide 15] (H-CAAARWKKNFIAVSAANRFKAIS-NH2; N-terminus assumed), in experiment [1], the koff is 0.00022 s⁻¹ and the on-rate (kon) turned out to be 1.1e+06 M⁻¹ s⁻¹. Moreover, the koff in experiment [2] turned out to be 0.00021 s⁻¹. Moreover, the “kisom. (s^-1)^A” value in experiment [3] is given as 1.2 (10.3) × 10^-1 s^-1.
For `CC[C@H](C)[C@H](NC(=O)[C@H](Cc1ccccc1)NC(=O)[C@H](CC(N)=O)NC(=O)[C@H](CCCCN)NC(=O)[C@H](CCCCN)NC(=O)[C@H](Cc1c[nH]c2ccccc12)NC(=O)[C@H](CCCNC(=N)N)NC(=O)[C@H](C)NC(=O)[C@H](C)NC(=O)[C@H](C)NC(=O)[C@@H](N)CS)C(=O)N[C@@H](C)C(=O)N[C@H](C(=O)N[C@@H](CO)C(=O)N[C@@H](C)C(=O)N[C@@H](C)C(=O)N[C@@H](CC(N)=O)C(=O)N[C@@H](CCCNC(=N)N)C(=O)N[C@@H](Cc1ccccc1)C(=O)N[C@@H](CCCCN)C(=O)N[C@@H](CCCCN)C(=O)N[C@@H](C)C(=O)N[C@@H](CO)C(N)=O)C(C)C` [Peptide 16] (H-CAAARWKKNFIAVSAANRFKKAS-NH2; N-terminus assumed) the same measures were 0.00031 s⁻¹, 810000 M⁻¹ s⁻¹, 0.00028 s⁻¹ and 8.7 (11.5) × 10^-2 s^-1.
For `CC[C@H](C)[C@H](NC(=O)[C@H](CCCCN)NC(=O)[C@H](CCCCN)NC(=O)[C@H](Cc1ccccc1)NC(=O)[C@H](CCCNC(=N)N)NC(=O)[C@H](CC(N)=O)NC(=O)[C@H](C)NC(=O)[C@H](C)NC(=O)[C@H](CO)NC(=O)[C@@H](NC(=O)[C@H](C)NC(=O)[C@@H](NC(=O)[C@H](Cc1ccccc1)NC(=O)[C@H](CC(N)=O)NC(=O)[C@H](CCCCN)NC(=O)[C@H](CCCCN)NC(=O)[C@H](Cc1c[nH]c2ccccc12)NC(=O)[C@H](CCCNC(=N)N)NC(=O)[C@H](C)NC(=O)[C@H](C)NC(=O)[C@H](C)NC(=O)[C@@H](N)CS)[C@@H](C)CC)C(C)C)C(=O)N[C@@H](C)C(N)=O` [Peptide 17] (H-CAAARWKKNFIAVSAANRFKKIA-NH2; N-terminus assumed), in experiment [1], the “improvement of koff with respect to wild type, in words” value is “largest improvements”; the koff amounted to 0.00013 s⁻¹; the on-rate constant (kon) is 820000 M⁻¹ s⁻¹. The “improvement in Kd / affinity for calmodulin over the wild type peptide, in words” value in experiment [1] (Table 1) is recorded as “greatest improvement in Kd”. Moreover, the koff in experiment [2] was determined as 7e-05 s⁻¹. Besides, in experiment [3], the “kisom. (s^-1)^A” value is on record as 1.3 (10.4) × 10^-1 s^-1.
With `CC[C@H](C)[C@H](NC(=O)[C@H](CCCCN)NC(=O)[C@H](C)NC(=O)[C@H](Cc1ccccc1)NC(=O)[C@H](CCCNC(=N)N)NC(=O)[C@H](CC(N)=O)NC(=O)[C@H](C)NC(=O)[C@H](C)NC(=O)[C@H](C)NC(=O)[C@@H](NC(=O)[C@H](C)NC(=O)[C@@H](NC(=O)[C@H](Cc1ccccc1)NC(=O)[C@H](C)NC(=O)[C@H](CCCCN)NC(=O)[C@H](CCCCN)NC(=O)[C@H](Cc1c[nH]c2ccccc12)NC(=O)[C@H](CCCNC(=N)N)NC(=O)[C@H](C)NC(=O)[C@H](C)NC(=O)[C@H](C)NC(=O)[C@@H](N)CS)[C@@H](C)CC)C(C)C)C(=O)N[C@@H](C)C(N)=O` [SEQ ID NO:19] (H-CAAARWKKAFIAVAAANRFAKIA-NH2; N-terminus and C-terminus assumed), the “affinity for calmodulin compared with other peptides, in words” value in experiment [4] is on record as “comparable to that of peptide 6”. In addition, in experiment [4] (multiple mutant), the off-rate (koff) is 5.9e-06 s⁻¹ and the kon worked out at 610000 M⁻¹ s⁻¹.
`CC[C@H](C)[C@H](NC(=O)[C@H](Cc1ccccc1)NC(=O)[C@@H](NC(=O)[C@H](CCCCN)NC(=O)[C@H](CCCCN)NC(=O)[C@H](Cc1c[nH]c2ccccc12)NC(=O)[C@H](CCCNC(=N)N)NC(=O)[C@H](C)NC(=O)[C@H](C)NC(=O)[C@H](C)NC(=O)[C@@H](N)CS)C(C)C)C(=O)N[C@@H](C)C(=O)N[C@H](C(=O)N[C@@H](CO)C(=O)N[C@@H](C)C(=O)N[C@@H](C)C(=O)N[C@@H](CC(N)=O)C(=O)N[C@@H](CCCNC(=N)N)C(=O)N[C@@H](Cc1ccccc1)C(=O)N[C@@H](CCCCN)C(=O)N[C@@H](CCCCN)C(=O)N[C@H](C(=O)N[C@@H](CO)C(N)=O)[C@@H](C)CC)C(C)C` [a] (H-CAAARWKKVFIAVSAANRFKKIS-NH2; N-terminus and C-terminus assumed): in experiment [4] (Table II, N9 replacement), the koff came out at 0.00035 s⁻¹ and the on-rate constant (kon) stood at 850000 M⁻¹ s⁻¹.
For `CC[C@H](C)[C@H](NC(=O)[C@H](Cc1ccccc1)NC(=O)[C@H](Cc1ccccc1)NC(=O)[C@H](CCCCN)NC(=O)[C@H](CCCCN)NC(=O)[C@H](Cc1c[nH]c2ccccc12)NC(=O)[C@H](CCCNC(=N)N)NC(=O)[C@H](C)NC(=O)[C@H](C)NC(=O)[C@H](C)NC(=O)[C@@H](N)CS)C(=O)N[C@@H](C)C(=O)N[C@H](C(=O)N[C@@H](CO)C(=O)N[C@@H](C)C(=O)N[C@@H](C)C(=O)N[C@@H](CC(N)=O)C(=O)N[C@@H](CCCNC(=N)N)C(=O)N[C@@H](Cc1ccccc1)C(=O)N[C@@H](CCCCN)C(=O)N[C@@H](CCCCN)C(=O)N[C@H](C(=O)N[C@@H](CO)C(N)=O)[C@@H](C)CC)C(C)C` [b] (H-CAAARWKKFFIAVSAANRFKKIS-NH2; N-terminus and C-terminus assumed) the same measures were 2.9e-05 s⁻¹ and 290000 M⁻¹ s⁻¹.
